The test in a line: Inhibition of EGFR L858R mutant (unknown origin) using poly (Glu, Tyr) as substrate after 40 mins by kinase-glo plus luminescence assay.

By IC50 is commonly meant the concentration needed to halve the response being measured. `CN(C)C1CCN(c2ccc(Nc3ncc4nc(Sc5ccccc5)n(C5CCOCC5)c4n3)cc2)CC1`: the IC50 amounted to 1.9 nM.

`CN(C)CCOc1ccc(Nc2ncc3nc(Sc4cccc(F)c4)n(C4CCOCC4)c3n2)cc1`: the IC50 turned out to be 5.8 nM.

Consider `CN1CCN(c2ccc(Nc3ncc4nc([S+]([O-])c5ccccc5)n(C5CCCC5)c4n3)cc2)CC1` (centres undefined), for which the IC50 was found to be 4.2 nM.

Take `CN(C)CCOc1ccc(Nc2ncc3nc([S+]([O-])c4ccccc4)n(C4CCOCC4)c3n2)cc1` (centres undefined): the IC50 stood at 2.6 nM.

With `CN1CCN(c2ccc(Nc3ncc4nc(Sc5ccccc5)n([C@H]5CC[C@H](O)CC5)c4n3)cc2)CC1`, the concentration for half-maximal inhibition (IC50) amounted to 2.4 nM.

On to `CN(C)CCOc1ccc(Nc2ncc3nc(Sc4ccc(F)cc4)n(C4CCOCC4)c3n2)cc1`, for which the IC50 worked out at 1.2 nM.

With `CN1CCN(c2ccc(Nc3ncc4nc(Sc5ccccc5)n(C5CCCC5)c4n3)cc2)CC1`, the half-inhibitory concentration (IC50) worked out at 4.2 nM.

For the compound `CN(C)CCOc1ccc(Nc2ncc3nc(Sc4ccccc4)n(C4CCOCC4)c3n2)cc1`, the half-inhibitory concentration (IC50) was found to be 1.7 nM.

In the case of `CN1CCN(c2ccc(Nc3ncc4nc(Sc5ccccc5)n(C5CCOCC5)c4n3)cc2)CC1`, the IC50 was found to be 2 nM.

These data come from BindingDB's records for doi:10.1016/j.bmc.2018.03.025 (Xi'An Jiaotong University, 2018).
